Test results reported in ChEMBL document CHEMBL5442219.

Assays:
Details in all cases: Compound concentration 10 µM
[1] = target: D(1B) dopamine receptor (Homo sapiens) (UniProt P21918)
Description: PDSP Primary Binding target: DRD5 - Compounds are tested at 10 uM concentration, plate are incubated at room temperature in the dark for 90 minutes. Reaction are stopped by vacuum filtration onto 0.3% polyethyleneimine soaked filter mats using Filtermate harvester. Scintilation cocktail is then melted onto microwave-dried filters on a hot plate and the radio activity is counted in Microbia counter.

[2] = target: T1, Muscarinic acetylcholine receptor M1 (Homo sapiens) (UniProt P11229)
T1 sequence (whole entry): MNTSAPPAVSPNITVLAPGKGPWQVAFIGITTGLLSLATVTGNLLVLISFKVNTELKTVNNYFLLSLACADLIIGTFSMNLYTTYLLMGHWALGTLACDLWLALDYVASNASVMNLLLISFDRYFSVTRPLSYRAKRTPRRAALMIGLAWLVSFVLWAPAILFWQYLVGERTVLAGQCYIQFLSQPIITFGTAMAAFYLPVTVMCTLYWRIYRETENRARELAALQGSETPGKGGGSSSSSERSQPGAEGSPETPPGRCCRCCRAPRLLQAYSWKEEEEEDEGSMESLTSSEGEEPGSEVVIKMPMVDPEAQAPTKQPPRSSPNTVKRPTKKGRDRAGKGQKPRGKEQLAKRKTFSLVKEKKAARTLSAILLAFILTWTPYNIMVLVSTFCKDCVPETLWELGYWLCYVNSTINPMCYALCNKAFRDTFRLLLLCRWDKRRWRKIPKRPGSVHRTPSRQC
Description: PDSP Primary Binding target: CHRM1 - Compounds are tested at 10 uM concentration, plate are incubated at room temperature in the dark for 90 minutes. Reaction are stopped by vacuum filtration onto 0.3% polyethyleneimine soaked filter mats using Filtermate harvester. Scintilation cocktail is then melted onto microwave-dried filters on a hot plate and the radio activity is counted in Microbia counter.

[3] = target: Histamine H2 receptor (Homo sapiens) (UniProt P25021)
Description: PDSP Primary Binding target: HRH2 - Compounds are tested at 10 uM concentration, plate are incubated at room temperature in the dark for 90 minutes. Reaction are stopped by vacuum filtration onto 0.3% polyethyleneimine soaked filter mats using Filtermate harvester. Scintilation cocktail is then melted onto microwave-dried filters on a hot plate and the radio activity is counted in Microbia counter.

[4] = target: Sigma intracellular receptor 2 (Homo sapiens) (UniProt Q5BJF2)
Description: PDSP Primary Binding target: TMEM97 - Compounds are tested at 10 uM concentration, plate are incubated at room temperature in the dark for 90 minutes. Reaction are stopped by vacuum filtration onto 0.3% polyethyleneimine soaked filter mats using Filtermate harvester. Scintilation cocktail is then melted onto microwave-dried filters on a hot plate and the radio activity is counted in Microbia counter.

[5] = target: 5-hydroxytryptamine receptor 6 (Homo sapiens) (UniProt P50406)
Description: PDSP Primary Binding target: HTR6 - Compounds are tested at 10 uM concentration, plate are incubated at room temperature in the dark for 90 minutes. Reaction are stopped by vacuum filtration onto 0.3% polyethyleneimine soaked filter mats using Filtermate harvester. Scintilation cocktail is then melted onto microwave-dried filters on a hot plate and the radio activity is counted in Microbia counter.

[6] = target: T2, Alpha-2C adrenergic receptor (Homo sapiens) (UniProt P18825)
T2 sequence (whole entry): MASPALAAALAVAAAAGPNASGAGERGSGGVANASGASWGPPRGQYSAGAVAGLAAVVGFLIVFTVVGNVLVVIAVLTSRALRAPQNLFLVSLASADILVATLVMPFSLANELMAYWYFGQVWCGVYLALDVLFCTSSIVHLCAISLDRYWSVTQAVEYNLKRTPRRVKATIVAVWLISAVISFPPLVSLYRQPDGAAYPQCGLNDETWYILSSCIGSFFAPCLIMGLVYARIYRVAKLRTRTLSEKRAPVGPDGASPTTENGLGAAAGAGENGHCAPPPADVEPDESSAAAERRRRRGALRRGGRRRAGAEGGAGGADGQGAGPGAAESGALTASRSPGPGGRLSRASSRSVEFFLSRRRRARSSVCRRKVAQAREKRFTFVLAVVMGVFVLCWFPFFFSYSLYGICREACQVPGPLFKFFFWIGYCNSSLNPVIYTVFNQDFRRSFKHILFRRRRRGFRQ
Description: PDSP Primary Binding target: ADRA2C - Compounds are tested at 10 uM concentration, plate are incubated at room temperature in the dark for 90 minutes. Reaction are stopped by vacuum filtration onto 0.3% polyethyleneimine soaked filter mats using Filtermate harvester. Scintilation cocktail is then melted onto microwave-dried filters on a hot plate and the radio activity is counted in Microbia counter.

[7] = target: T3, Alpha-1B adrenergic receptor (Homo sapiens) (UniProt P35368)
T3 sequence (whole entry): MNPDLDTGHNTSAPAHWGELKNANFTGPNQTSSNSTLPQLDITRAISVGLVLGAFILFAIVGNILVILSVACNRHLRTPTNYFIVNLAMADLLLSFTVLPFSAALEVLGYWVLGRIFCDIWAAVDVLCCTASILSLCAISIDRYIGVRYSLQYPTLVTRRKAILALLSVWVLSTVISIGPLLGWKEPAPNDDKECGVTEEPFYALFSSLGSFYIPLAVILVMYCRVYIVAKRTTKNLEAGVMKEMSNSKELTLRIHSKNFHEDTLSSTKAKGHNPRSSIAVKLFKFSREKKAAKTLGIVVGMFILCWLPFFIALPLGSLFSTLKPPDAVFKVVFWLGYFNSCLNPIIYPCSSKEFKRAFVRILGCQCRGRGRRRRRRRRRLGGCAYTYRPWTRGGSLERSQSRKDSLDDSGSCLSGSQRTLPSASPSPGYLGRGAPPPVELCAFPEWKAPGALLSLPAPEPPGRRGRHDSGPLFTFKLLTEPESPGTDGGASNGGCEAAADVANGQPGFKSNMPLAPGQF
Description: PDSP Primary Binding target: ADRA1B - Compounds are tested at 10 uM concentration, plate are incubated at room temperature in the dark for 90 minutes. Reaction are stopped by vacuum filtration onto 0.3% polyethyleneimine soaked filter mats using Filtermate harvester. Scintilation cocktail is then melted onto microwave-dried filters on a hot plate and the radio activity is counted in Microbia counter.

[8] = target: Mu-type opioid receptor (Homo sapiens) (UniProt P35372)
Description: PDSP Primary Binding target: OPRM1 - Compounds are tested at 10 uM concentration, plate are incubated at room temperature in the dark for 90 minutes. Reaction are stopped by vacuum filtration onto 0.3% polyethyleneimine soaked filter mats using Filtermate harvester. Scintilation cocktail is then melted onto microwave-dried filters on a hot plate and the radio activity is counted in Microbia counter.

[9] = target: 5-hydroxytryptamine receptor 2A (Homo sapiens) (UniProt P28223)
Description: PDSP Primary Binding target: HTR2A - Compounds are tested at 10 uM concentration, plate are incubated at room temperature in the dark for 90 minutes. Reaction are stopped by vacuum filtration onto 0.3% polyethyleneimine soaked filter mats using Filtermate harvester. Scintilation cocktail is then melted onto microwave-dried filters on a hot plate and the radio activity is counted in Microbia counter.

[10] = target: Delta-type opioid receptor (Homo sapiens) (UniProt P41143)
Description: PDSP Primary Binding target: OPRD1 - Compounds are tested at 10 uM concentration, plate are incubated at room temperature in the dark for 90 minutes. Reaction are stopped by vacuum filtration onto 0.3% polyethyleneimine soaked filter mats using Filtermate harvester. Scintilation cocktail is then melted onto microwave-dried filters on a hot plate and the radio activity is counted in Microbia counter.

[11] = target: T4, Muscarinic acetylcholine receptor M4 (Homo sapiens) (UniProt P08173)
T4 sequence (whole entry): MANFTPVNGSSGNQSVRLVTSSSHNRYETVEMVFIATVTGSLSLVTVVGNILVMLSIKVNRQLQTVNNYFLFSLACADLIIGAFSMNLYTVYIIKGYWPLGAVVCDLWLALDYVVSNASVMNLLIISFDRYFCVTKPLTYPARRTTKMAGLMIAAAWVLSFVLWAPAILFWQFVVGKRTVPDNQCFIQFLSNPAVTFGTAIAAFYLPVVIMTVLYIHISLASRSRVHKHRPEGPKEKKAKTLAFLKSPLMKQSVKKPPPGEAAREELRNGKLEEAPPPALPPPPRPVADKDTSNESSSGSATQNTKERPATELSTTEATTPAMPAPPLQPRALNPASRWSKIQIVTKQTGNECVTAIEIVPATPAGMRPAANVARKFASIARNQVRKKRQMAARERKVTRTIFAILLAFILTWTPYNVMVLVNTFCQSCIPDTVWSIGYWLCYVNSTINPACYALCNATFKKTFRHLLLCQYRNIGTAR
Description: PDSP Primary Binding target: CHRM4 - Compounds are tested at 10 uM concentration, plate are incubated at room temperature in the dark for 90 minutes. Reaction are stopped by vacuum filtration onto 0.3% polyethyleneimine soaked filter mats using Filtermate harvester. Scintilation cocktail is then melted onto microwave-dried filters on a hot plate and the radio activity is counted in Microbia counter.

[12] = target: 5-hydroxytryptamine receptor 1D (Homo sapiens) (UniProt P28221)
Description: PDSP Primary Binding target: HTR1D - Compounds are tested at 10 uM concentration, plate are incubated at room temperature in the dark for 90 minutes. Reaction are stopped by vacuum filtration onto 0.3% polyethyleneimine soaked filter mats using Filtermate harvester. Scintilation cocktail is then melted onto microwave-dried filters on a hot plate and the radio activity is counted in Microbia counter.

[13] = target: Beta-3 adrenergic receptor (Homo sapiens) (UniProt P13945)
Description: PDSP Primary Binding target: ADRB3 - Compounds are tested at 10 uM concentration, plate are incubated at room temperature in the dark for 90 minutes. Reaction are stopped by vacuum filtration onto 0.3% polyethyleneimine soaked filter mats using Filtermate harvester. Scintilation cocktail is then melted onto microwave-dried filters on a hot plate and the radio activity is counted in Microbia counter.

[14] = target: 5-hydroxytryptamine receptor 7 (Homo sapiens) (UniProt P34969)
Description: PDSP Primary Binding target: HTR7 - Compounds are tested at 10 uM concentration, plate are incubated at room temperature in the dark for 90 minutes. Reaction are stopped by vacuum filtration onto 0.3% polyethyleneimine soaked filter mats using Filtermate harvester. Scintilation cocktail is then melted onto microwave-dried filters on a hot plate and the radio activity is counted in Microbia counter.

[15] = target: D(1A) dopamine receptor (Homo sapiens) (UniProt P21728)
Description: PDSP Primary Binding target: DRD1 - Compounds are tested at 10 uM concentration, plate are incubated at room temperature in the dark for 90 minutes. Reaction are stopped by vacuum filtration onto 0.3% polyethyleneimine soaked filter mats using Filtermate harvester. Scintilation cocktail is then melted onto microwave-dried filters on a hot plate and the radio activity is counted in Microbia counter.

[16] = target: Beta-2 adrenergic receptor (Homo sapiens) (UniProt P07550)
Description: PDSP Primary Binding target: ADRB2 - Compounds are tested at 10 uM concentration, plate are incubated at room temperature in the dark for 90 minutes. Reaction are stopped by vacuum filtration onto 0.3% polyethyleneimine soaked filter mats using Filtermate harvester. Scintilation cocktail is then melted onto microwave-dried filters on a hot plate and the radio activity is counted in Microbia counter.

[17] = target: Sodium-dependent dopamine transporter (Homo sapiens) (UniProt Q01959)
Description: PDSP Primary Binding target: SLC6A3 - Compounds are tested at 10 uM concentration, plate are incubated at room temperature in the dark for 90 minutes. Reaction are stopped by vacuum filtration onto 0.3% polyethyleneimine soaked filter mats using Filtermate harvester. Scintilation cocktail is then melted onto microwave-dried filters on a hot plate and the radio activity is counted in Microbia counter.

[18] = target: Sodium-dependent noradrenaline transporter (Homo sapiens) (UniProt P23975)
Description: PDSP Primary Binding target: SLC6A2 - Compounds are tested at 10 uM concentration, plate are incubated at room temperature in the dark for 90 minutes. Reaction are stopped by vacuum filtration onto 0.3% polyethyleneimine soaked filter mats using Filtermate harvester. Scintilation cocktail is then melted onto microwave-dried filters on a hot plate and the radio activity is counted in Microbia counter.

Sequence of Mu-type opioid receptor (Homo sapiens) (P35372 whole entry): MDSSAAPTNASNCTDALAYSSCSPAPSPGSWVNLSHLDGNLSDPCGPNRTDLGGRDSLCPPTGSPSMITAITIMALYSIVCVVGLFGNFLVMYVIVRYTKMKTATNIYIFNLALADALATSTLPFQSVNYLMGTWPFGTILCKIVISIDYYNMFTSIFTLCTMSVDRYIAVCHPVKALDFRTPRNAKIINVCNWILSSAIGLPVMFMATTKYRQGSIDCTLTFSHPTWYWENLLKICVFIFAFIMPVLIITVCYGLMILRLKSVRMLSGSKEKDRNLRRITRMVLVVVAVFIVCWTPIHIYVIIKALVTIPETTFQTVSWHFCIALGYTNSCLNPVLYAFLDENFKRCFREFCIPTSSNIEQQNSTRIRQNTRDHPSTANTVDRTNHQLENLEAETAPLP
Sequence of Delta-type opioid receptor (Homo sapiens) (P41143 whole entry): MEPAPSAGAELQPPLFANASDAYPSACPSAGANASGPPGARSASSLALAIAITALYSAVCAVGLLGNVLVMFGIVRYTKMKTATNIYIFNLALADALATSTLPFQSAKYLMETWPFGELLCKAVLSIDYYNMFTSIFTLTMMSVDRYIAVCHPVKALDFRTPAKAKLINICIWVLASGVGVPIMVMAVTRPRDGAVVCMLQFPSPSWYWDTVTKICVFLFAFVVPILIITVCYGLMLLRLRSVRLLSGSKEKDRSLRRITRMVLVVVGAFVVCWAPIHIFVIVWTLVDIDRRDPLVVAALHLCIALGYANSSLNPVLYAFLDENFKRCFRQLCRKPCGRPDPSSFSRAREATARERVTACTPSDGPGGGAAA
Sequence of Sodium-dependent dopamine transporter (Homo sapiens) (Q01959 whole entry): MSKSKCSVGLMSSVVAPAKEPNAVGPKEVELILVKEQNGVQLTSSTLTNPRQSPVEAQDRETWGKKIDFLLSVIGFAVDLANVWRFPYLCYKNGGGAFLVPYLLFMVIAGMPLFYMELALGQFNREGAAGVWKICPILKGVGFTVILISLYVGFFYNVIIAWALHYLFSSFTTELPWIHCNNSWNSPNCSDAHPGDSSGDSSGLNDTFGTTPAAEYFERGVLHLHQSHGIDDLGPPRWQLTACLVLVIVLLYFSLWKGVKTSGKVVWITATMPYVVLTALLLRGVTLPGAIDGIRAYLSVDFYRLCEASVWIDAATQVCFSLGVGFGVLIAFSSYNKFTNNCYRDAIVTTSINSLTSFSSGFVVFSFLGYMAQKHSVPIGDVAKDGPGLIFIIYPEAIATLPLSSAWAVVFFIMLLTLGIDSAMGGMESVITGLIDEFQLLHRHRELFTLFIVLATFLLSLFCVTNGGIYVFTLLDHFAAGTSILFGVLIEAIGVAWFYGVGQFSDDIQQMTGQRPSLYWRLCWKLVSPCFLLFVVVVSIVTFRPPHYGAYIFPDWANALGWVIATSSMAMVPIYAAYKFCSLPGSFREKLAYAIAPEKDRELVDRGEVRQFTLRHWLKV
Sequence of 5-hydroxytryptamine receptor 2A (Homo sapiens) (P28223 whole entry): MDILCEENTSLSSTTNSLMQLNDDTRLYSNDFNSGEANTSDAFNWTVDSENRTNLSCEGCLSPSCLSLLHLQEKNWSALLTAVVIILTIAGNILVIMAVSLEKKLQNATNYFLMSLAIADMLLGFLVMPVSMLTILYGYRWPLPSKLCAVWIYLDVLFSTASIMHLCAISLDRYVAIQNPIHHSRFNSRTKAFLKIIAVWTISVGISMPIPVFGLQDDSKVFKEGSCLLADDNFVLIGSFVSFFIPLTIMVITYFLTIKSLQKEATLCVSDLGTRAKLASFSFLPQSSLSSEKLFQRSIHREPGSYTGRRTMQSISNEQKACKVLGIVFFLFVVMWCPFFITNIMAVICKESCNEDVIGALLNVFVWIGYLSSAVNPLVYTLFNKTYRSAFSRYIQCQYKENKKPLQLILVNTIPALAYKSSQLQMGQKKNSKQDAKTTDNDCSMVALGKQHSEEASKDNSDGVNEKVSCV
Sequence of Histamine H2 receptor (Homo sapiens) (P25021 whole entry): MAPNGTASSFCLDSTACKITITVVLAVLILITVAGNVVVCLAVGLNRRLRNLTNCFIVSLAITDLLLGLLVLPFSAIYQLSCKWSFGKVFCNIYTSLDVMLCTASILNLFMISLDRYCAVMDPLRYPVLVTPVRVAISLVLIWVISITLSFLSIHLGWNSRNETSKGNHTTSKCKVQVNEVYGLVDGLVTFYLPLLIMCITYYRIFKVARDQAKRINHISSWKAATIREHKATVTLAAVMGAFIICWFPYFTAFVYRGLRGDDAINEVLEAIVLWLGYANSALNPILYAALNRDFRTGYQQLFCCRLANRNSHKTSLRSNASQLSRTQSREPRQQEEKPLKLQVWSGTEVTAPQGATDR
Sequence of 5-hydroxytryptamine receptor 1D (Homo sapiens) (P28221 whole entry): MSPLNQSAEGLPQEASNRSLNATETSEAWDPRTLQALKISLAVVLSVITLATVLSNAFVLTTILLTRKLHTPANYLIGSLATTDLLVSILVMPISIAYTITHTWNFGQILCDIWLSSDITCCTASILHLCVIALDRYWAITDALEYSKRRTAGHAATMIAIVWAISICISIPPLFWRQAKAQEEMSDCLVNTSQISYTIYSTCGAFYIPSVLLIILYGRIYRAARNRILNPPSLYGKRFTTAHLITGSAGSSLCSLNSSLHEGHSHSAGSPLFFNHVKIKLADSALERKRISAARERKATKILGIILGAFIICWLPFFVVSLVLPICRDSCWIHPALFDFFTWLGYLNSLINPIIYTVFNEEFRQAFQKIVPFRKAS
Sequence of Sigma intracellular receptor 2 (Homo sapiens) (Q5BJF2 whole entry): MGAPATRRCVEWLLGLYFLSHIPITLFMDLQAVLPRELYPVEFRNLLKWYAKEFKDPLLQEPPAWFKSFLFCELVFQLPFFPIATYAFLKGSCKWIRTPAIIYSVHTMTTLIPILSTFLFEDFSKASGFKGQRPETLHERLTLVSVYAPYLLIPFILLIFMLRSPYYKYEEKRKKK
Sequence of D(1A) dopamine receptor (Homo sapiens) (P21728 whole entry): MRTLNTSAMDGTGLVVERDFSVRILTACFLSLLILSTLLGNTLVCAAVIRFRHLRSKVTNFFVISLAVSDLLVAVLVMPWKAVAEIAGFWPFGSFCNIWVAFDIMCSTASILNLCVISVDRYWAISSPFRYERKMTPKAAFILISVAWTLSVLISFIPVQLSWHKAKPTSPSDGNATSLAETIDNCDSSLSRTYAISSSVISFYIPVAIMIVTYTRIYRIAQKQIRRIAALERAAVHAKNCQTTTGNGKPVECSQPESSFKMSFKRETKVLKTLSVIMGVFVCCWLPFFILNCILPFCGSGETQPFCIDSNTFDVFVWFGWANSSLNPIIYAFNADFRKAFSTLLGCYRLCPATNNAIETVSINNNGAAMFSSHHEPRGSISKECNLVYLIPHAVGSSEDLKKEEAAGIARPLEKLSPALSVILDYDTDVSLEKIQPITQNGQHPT
Sequence of D(1B) dopamine receptor (Homo sapiens) (P21918 whole entry): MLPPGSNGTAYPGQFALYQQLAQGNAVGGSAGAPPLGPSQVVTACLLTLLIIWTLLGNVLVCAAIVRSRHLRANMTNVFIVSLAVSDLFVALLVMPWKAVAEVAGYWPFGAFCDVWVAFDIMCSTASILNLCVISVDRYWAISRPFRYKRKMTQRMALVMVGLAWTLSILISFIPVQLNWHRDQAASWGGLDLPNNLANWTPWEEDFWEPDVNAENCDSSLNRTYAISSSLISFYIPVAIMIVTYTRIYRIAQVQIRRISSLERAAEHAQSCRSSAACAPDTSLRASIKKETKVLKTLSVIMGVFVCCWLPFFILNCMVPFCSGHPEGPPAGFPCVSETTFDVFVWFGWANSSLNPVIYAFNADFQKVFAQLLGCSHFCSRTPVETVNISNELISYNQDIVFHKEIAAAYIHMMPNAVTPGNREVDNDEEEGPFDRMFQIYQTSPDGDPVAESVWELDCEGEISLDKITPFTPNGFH
Sequence of 5-hydroxytryptamine receptor 6 (Homo sapiens) (P50406 whole entry): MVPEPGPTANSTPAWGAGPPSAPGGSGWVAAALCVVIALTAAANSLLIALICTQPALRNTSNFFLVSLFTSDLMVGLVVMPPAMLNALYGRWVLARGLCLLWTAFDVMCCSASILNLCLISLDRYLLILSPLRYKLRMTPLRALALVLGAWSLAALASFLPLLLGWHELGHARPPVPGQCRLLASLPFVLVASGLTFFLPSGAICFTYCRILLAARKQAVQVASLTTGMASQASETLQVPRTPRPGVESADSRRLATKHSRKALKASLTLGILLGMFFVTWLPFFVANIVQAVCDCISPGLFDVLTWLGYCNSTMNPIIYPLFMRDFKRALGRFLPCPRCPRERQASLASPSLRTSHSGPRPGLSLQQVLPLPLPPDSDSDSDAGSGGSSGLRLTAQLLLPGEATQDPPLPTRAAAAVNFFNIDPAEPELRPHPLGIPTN
Sequence of 5-hydroxytryptamine receptor 7 (Homo sapiens) (P34969 whole entry): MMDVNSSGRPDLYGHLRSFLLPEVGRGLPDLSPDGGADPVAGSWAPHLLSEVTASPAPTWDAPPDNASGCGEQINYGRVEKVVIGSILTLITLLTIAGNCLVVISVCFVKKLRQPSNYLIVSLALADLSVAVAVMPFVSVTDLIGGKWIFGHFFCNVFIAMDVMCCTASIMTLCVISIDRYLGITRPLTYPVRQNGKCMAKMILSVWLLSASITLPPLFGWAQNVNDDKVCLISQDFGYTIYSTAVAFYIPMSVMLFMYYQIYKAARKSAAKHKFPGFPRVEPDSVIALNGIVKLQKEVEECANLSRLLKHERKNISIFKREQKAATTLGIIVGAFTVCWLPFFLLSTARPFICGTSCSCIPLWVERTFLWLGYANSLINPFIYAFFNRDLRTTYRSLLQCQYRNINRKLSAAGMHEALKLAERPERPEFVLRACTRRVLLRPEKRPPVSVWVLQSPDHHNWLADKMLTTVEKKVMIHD

Compound | inhibition [1] [%] | inhibition [2] [%] | inhibition [3] [%] | inhibition [4] [%] | inhibition [5] [%] | inhibition [6] [%] | inhibition [7] [%] | inhibition [8] [%] | inhibition [9] [%] | inhibition [10] [%] | inhibition [11] [%] | inhibition [12] [%] | inhibition [13] [%] | inhibition [14] [%] | inhibition [15] [%] | inhibition [16] [%] | inhibition [17] [%] | inhibition [18] [%]
CCCCCCCCCCCCCCCCOC[C@H](COP(=O)([O-])OCC[N+](C)(C)C)OC(C)=O | 13.6 | 49.9 | 4.45 | 57.9 | 4.6 | 3.24 | 71.6 | 35.1 | 2.23 | 43.7 | -0.21 | 68.2 | 28.1 | -1.59 |  |  |  | 
Cc1nc(C(=O)N2CCC[C@H]2Cc2nnc(-c3ccccc3)o2)c(-c2ccccc2F)s1 |  | -9.02 | -4.23 | 12.9 | 17.4 | -1.4 | 9.45 | 7.98 | 8.26 | -2.06 | 39.1 |  | 23.9 |  | 7.87 | -2.08 | 26.1 | 
C[C@H](CO)Nc1nc(SCc2cccc(Cl)c2F)nc2[nH]c(=O)sc12 | -1.9 | -2.82 | 40 |  | -7.23 |  | 3.03 | 10.8 | 7.55 |  | -0.1 |  | -1.24 | -7.53 | -6.29 | 8.37 | 8.96 | 
CCCCC#Cc1nc(NC)c2ncn([C@@H]3O[C@H](CO)[C@@H](O)[C@H]3O)c2n1 |  | -6.77 | 16 | 8.59 | 2.49 | -4.88 | 8.1 | 2.4 | 92.5 | 9.12 | 0.76 | 8.46 | -8.99 |  | 0.72 |  |  | 
CC(C)NCC(O)c1ccc(N)c(C#N)c1 (stereo not drawn) |  | -2.53 | 5.77 | 29.6 | 18 | -3.24 | -5.56 |  | 9.46 |  |  |  | 59.9 | 20.1 | -2.82 | 95.5 | 29 | 4.01
O=C(Cc1ccccc1)Nc1nc2ccc(Cl)cc2c2nc(-c3ccco3)nn12 |  | 5.61 | 13.8 | -6.83 | -2.97 | 9.95 | -7.34 | 17.8 | 16.8 |  | -5.46 |  | -9.26 |  |  | 2.33 | 27.1 | -6.09
O=c1ccn([C@@H]2O[C@H](COP(=O)(O)OP(=O)(O)O)[C@@H](O)[C@H]2O)c(=O)[nH]1 | -4.32 |  | -7.58 | 2.62 | 6.18 | -6.08 | -6.51 | 44 | 10.7 | 14.1 | 9.94 | -5.04 | 15.3 |  |  | -0.48 | 6.84 | 13.7
COc1ccc(Br)cc1S(=O)(=O)NC(=O)/C=C/c1ccccc1Cc1ccc2ccccc2c1 | -9.64 | 4.85 | 16 | 5.53 | -2.73 | 18.6 | -0.54 | 22.1 | 8.02 | -2.75 | -8.83 | 12 | 33.2 |  | -4.59 | -2.54 |  | -0.94
COc1ccc(S(=O)(=O)c2cc(OC)ccc2S(=O)(=O)c2ccc([C@H](C)NS(C)(=O)=O)cc2)cc1 | 14.2 | -2.24 | 15.6 | 32.1 | 96.5 | 7.85 | -4.35 | 11.3 | 31.9 |  | -3.37 |  | 1.41 |  | 0.39 | -1.6 | 18.8 | -0.68
Cc1cc(C(=O)N2Cc3cnn(C)c3Nc3ccccc32)ccc1CNC(=O)N1CCC[C@H]1C(=S)N1CCCN(C)CC1 | 11 | 49.6 | 46.9 | -1.48 |  | -5.77 | -2.71 | 12.3 | 9.68 |  | 63 |  | -2.29 | 0.75 | -3.37 | -1.47 | 19.8 | 
Cc1cc(NC(=O)Nc2ccc(N(C)C)cc2)c2cc(F)cc(F)c2n1 |  | -7.92 | 16.8 | 1.52 |  | 9.7 | 14 | 1.4 | 13 |  | 2.31 | -2.42 | 18.1 |  | 29.1 | 16.5 | 22.8 | 35.9
Nc1nc2c(c(N3CCNCC3)n1)CCC1=C2[C@@H]2CCCC[C@@H]2O1 | -1.02 | 8.9 | 43.4 | 36.6 | 17.3 | 30.6 | -8.32 | 26.7 | 50.6 |  | -0.51 | 10 | 14.4 | 17.8 | -6.45 |  |  | 
